Assay results as given in US9321756B2, “Azole compounds as PIM inhibitors” (priority 2011, dated 2016).
Like-named read-outs stand apart in the source and are kept apart here.

Key:
[1] = test system: Pim-1 stably transfected U2OS human osteogenic sarcoma line; assay: Pim cell assay U2OS (phospho-BAD normalized against total BAD), Pim-1 transfected; type: cell-based; details: Homo sapiens, U2OS
[2] = target: full length recombinant Pim-1 (Homo sapiens (Human), UniProt P11309); assay: Pim enzyme assay (HTRF, phosphorylation of biotinylated-BAD (S112) peptide), Pim-1; type: biochemical
[3] = target: full length recombinant Pim-3 (Homo sapiens (Human), UniProt Q86V86); assay: Pim enzyme assay (HTRF, phosphorylation of biotinylated-BAD (S112) peptide), Pim-3; type: biochemical; details: Pim-3 enzyme assay; read-out: Pim3 IC50
Outline: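 Full-length recombinant Pim-3 phosphorylated biotinylated BAD (S112) peptide in 60 mM Hepes pH 7.0, 0.05% BSA, 2 mM DTT for 1 h 30 min at 22 °C. After EDTA stop, HTRF was read with Eu anti-phospho-BAD and streptavidin-APC. IC50 came from 4-parameter logistic fit of percent-of-control values.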

[4] = target: full length recombinant Pim-2 (Homo sapiens (Human), UniProt Q9P1W9); assay: Pim enzyme assay (HTRF, phosphorylation of biotinylated-BAD (S112) peptide), Pim-2; type: biochemical; details: Pim-2 enzyme assay; read-out: Pim2_IC50
[5] = test system: Pim-2 stably transfected U2OS human osteogenic sarcoma line; assay: Pim cell assay U2OS (phospho-BAD normalized against total BAD), Pim-2 transfected; type: cell-based; details: Homo sapiens; U2OS cells, Pim-2 transfected; read-out: U2OS Pim2_Cell_IC50
[6] = Pim-1 enzyme assay, read-out: Pim_1_IC50
[7] = read-out: U2OS Pim1_Cell_IC50, U2OS cells, Pim-1 transfected

Chain of full length recombinant Pim-2 (Q9P1W9 whole entry): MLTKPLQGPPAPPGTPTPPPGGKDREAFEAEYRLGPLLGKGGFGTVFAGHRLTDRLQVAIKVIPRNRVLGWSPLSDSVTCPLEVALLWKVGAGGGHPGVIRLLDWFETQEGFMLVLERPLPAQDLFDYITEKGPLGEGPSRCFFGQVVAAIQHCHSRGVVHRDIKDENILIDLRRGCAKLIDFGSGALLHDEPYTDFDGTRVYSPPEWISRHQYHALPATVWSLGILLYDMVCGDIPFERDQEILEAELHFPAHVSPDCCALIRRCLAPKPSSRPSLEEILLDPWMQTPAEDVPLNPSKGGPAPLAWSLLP
Chain of full length recombinant Pim-1 (P11309 whole entry): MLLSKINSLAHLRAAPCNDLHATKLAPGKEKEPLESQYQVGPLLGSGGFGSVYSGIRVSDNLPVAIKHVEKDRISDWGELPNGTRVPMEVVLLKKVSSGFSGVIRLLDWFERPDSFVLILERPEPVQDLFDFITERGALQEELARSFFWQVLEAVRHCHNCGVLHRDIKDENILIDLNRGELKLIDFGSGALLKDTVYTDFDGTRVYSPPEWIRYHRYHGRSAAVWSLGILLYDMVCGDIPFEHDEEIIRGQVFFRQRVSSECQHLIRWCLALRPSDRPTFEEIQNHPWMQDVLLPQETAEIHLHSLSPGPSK

IC50 [2, 6] | IC50 [3] | IC50 [4] | IC50 [2] | SMILES | IC50 ([1]; read-out: U2OS Pim1_Cell_IC50) | IC50 [5] | IC50 [1, 7] | IC50 ([2]; read-out: Pim_1_IC50)
0.0167 µM | 0.0157 µM | 0.0192 µM | – | Nc1nnc(-c2ccc3[nH]cc(-c4nccc(-c5ccccc5Cl)n4)c3c2)o1 [Example 118, 5-(3-(4-(2-chlorophenyl)-2-pyrimidinyl)-1H-indol-5-yl)-1,3,4-oxadiazol-2-amine] | 0.217 µM | > 31.6 µM | – | –
0.00607 µM | 0.00215 µM | 0.0107 µM | – | Nc1nnc(-c2ccc3[nH]cc(-c4cncc(-c5cccc(F)c5)n4)c3c2)o1 [Example 119, 5-(3-(6-(3-fluorophenyl)-2-pyrazinyl)-1H-indol-5-yl)-1,3,4-oxadiazol-2-amine] | 0.085 µM | > 31.6 µM | – | –
0.00941 µM | 0.00423 µM | 0.0229 µM | – | Nc1nnc(-c2ccc3[nH]cc(-c4cncc(-c5cccc(Cl)c5)n4)c3c2)o1 [Example 120, 5-(3-(6-(3-chlorophenyl)-2-pyrazinyl)-1H-indol-5-yl)-1,3,4-oxadiazol-2-amine] | 0.242 µM | > 31.6 µM | – | –
0.019 µM | 0.00554 µM | 0.0346 µM | – | Cn1cc(-c2cncc(-c3c[nH]c4ccc(-c5nnc(N)o5)cc34)n2)cn1 [Example 121, 5-(3-(6-(1-methyl-1H-pyrazol-4-yl)-2-pyrazinyl)-1H-indol-5-yl)-1,3,4-oxadiazol-2-amine] | 3.14 µM | > 31.6 µM | – | –
0.00685 µM | 0.0024 µM | 0.00387 µM | – | Nc1nnc(-c2ccc3[nH]cc(-c4nccc(-c5ccccc5)n4)c3c2)o1 [Example 122, 5-(3-(4-phenyl-2-pyrimidinyl)-1H-indol-5-yl)-1,3,4-oxadiazol-2-amine] | – | 0.831 µM | 0.132 µM | –
0.0228 µM | 0.00768 µM | 0.057 µM | – | CC(C)Oc1ccc(F)c(-c2c[nH]c3ccc(-c4nnc(N)o4)nc23)c1 [Example 125, 5-(3-(2-fluoro-5-(1-methylethoxy)phenyl)-1H-pyrrolo[3,2-b]pyridin-5-yl)-1,3,4-oxadiazol-2-amine] | – | 4.43 µM | 0.109 µM | –
0.00291 µM | 0.000734 µM | 0.00153 µM | – | CNc1nnc(-c2ccc3[nH]cc(-c4nccc(N5CCC[C@H](N)C5)n4)c3c2)s1 [Example 128, (3S)-1-(2-(5-(5-(methylamino)-1,3,4-thiadiazol-2-yl)-1H-indol-3-yl)-4-pyrimidinyl)-3-piperidinamine] | – | 15.9 µM | 13.8 µM | –
0.0313 µM | 0.0123 µM | 0.0824 µM | – | CNc1nnc(-c2ccc3[nH]cc(-c4ccnc(N5CCOCC5)n4)c3c2)s1 [Example 129, N-methyl-5-(3-(2-(4-morpholinyl)-4-pyrimidinyl)-1H-indol-5-yl)-1,3,4-thiadiazol-2-amine] | – | > 31.6 µM | 0.982 µM | –
0.0396 µM | 0.0205 µM | 0.039 µM | – | Nc1nnc(-c2ccc3[nH]cc(-c4cccc(-c5ccccc5)n4)c3c2)s1 [Example 130, 5-(3-(6-phenyl-2-pyridinyl)-1H-indol-5-yl)-1,3,4-thiadiazol-2-amine] | 7.88 µM | > 31.6 µM | – | –
0.011 µM | 0.00398 µM | 0.0336 µM | – | CNc1nnc(-c2ccc3[nH]cc(-c4nccc(N5CCN(C)CC5)n4)c3c2)s1 [Example 132, N-methyl-5-(3-(4-(4-methyl-1-piperazinyl)-2-pyrimidinyl)-1H-indol-5-yl)-1,3,4-thiadiazol-2-amine] | 1.47 µM | 6.91 µM | – | –
0.0134 µM | 0.004 µM | 0.0194 µM | – | Nc1nnc(-c2ccc3[nH]cc(-c4ccnc(N5CCOCC5)n4)c3c2)s1 [Example 133, 5-(3-(2-(4-morpholinyl)-4-pyrimidinyl)-1H-indol-5-yl)-1,3,4-thiadiazol-2-amine] | – | 8.06 µM | 0.535 µM | –
0.038 µM | 0.0123 µM | 0.0163 µM | – | CNc1nnc(-c2ccc3[nH]cc(-c4nccc(N5CCOCC5)n4)c3c2)s1 [Example 134, N-methyl-5-(3-(4-(4-morpholinyl)-2-pyrimidinyl)-1H-indol-5-yl)-1,3,4-thiadiazol-2-amine] | – | 6.11 µM | 1.44 µM | –
0.0861 µM | 0.0327 µM | 0.0597 µM | – | CNc1nnc(-c2ccc3[nH]cc(-c4nccc(N5CCCCC5)n4)c3c2)s1 [Example 135, N-methyl-5-(3-(4-(1-piperidinyl)-2-pyrimidinyl)-1H-indol-5-yl)-1,3,4-thiadiazol-2-amine] | – | > 31.6 µM | 8.44 µM | –
0.0673 µM | 0.0309 µM | 0.06 µM | – | Nc1nnc(-c2ccc3[nH]cc(-c4ccccc4F)c3c2)s1 [Example 136, 5-(3-(2-fluorophenyl)-1H-indol-5-yl)-1,3,4-thiadiazol-2-amine] | – | > 31.6 µM | 3.41 µM | –
0.103 µM | 0.0175 µM | 0.144 µM | – | Nc1nnc(-c2ccc3[nH]cc(-c4ccc5nccnc5c4)c3c2)s1 [Example 151, 5-(3-(6-quinoxalinyl)-1H-indol-5-yl)-1,3,4-thiadiazol-2-amine] | 0.925 µM | > 31.6 µM | – | –
– | 0.0017 µM | 0.00974 µM | 0.00177 µM | CC1CCCCN1c1cncc(-c2c[nH]c3ccc(-c4nnc(N)s4)cc23)n1 (stereo not drawn) [Example 153, 5-(3-(6-(2-methyl-1-piperidinyl)-2-pyrazinyl)-1H-indol-5-yl)-1,3,4-thiadiazol-2-amine] | 0.0519 µM | 1.66 µM | – | –
0.002 µM | 0.00145 µM | 0.02 µM | – | CCN(CC)c1cncc(-c2c[nH]c3ccc(-c4nnc(N)s4)cc23)n1 [Example 154, 6-(5-(5-amino-1,3,4-thiadiazol-2-yl)-1H-indol-3-yl)-N,N-diethyl-2-pyrazinamine] | – | 2.3 µM | 0.0434 µM | –
0.00442 µM | 0.000425 µM | 0.00225 µM | – | Cc1cn(-c2cccc(-c3c[nH]c4ccc(-c5nnc(N)s5)cc34)n2)cn1 [Example 155, 5-(3-(6-(4-methyl-1H-imidazol-1-yl)-2-pyridinyl)-1H-indol-5-yl)-1,3-4-thiadiazol-2-amine] | – | > 31.6 µM | 0.259 µM | –
0.00559 µM | 0.00438 µM | 0.0123 µM | – | Nc1nnc(-c2ccc3[nH]cc(-c4cncc(N5CCOCC5)n4)c3c2)s1 [Example 156, 5-(3-(6-(4-morpholinyl)-2-pyrazinyl)-1H-indol-5-yl)-1,3,4-thiadiazol-2-amine] | – | 1.9 µM | 0.163 µM | –
0.00818 µM | 0.00386 µM | 0.0282 µM | – | CN(C)c1cncc(-c2c[nH]c3ccc(-c4nnc(N)s4)cc23)n1 [Example 158, 6-(5-(5-amino-1,3,4-thiadiazol-2-yl)-1H-indol-3-yl)-N,N-dimethyl-2-pyrazinamine] | – | 3.04 µM | 0.133 µM | –

SMILES | IC50 [2, 6] | IC50 [3] | IC50 [4] | IC50 [2] | IC50 ([1]; read-out: U2OS Pim1_Cell_IC50) | IC50 [5] | IC50 [1, 7] | IC50 ([2]; read-out: Pim_1_IC50)
CC(C)Oc1cncc(-c2c[nH]c3ccc(-c4nnc(N)s4)cc23)n1 [Example 159, 5-(3-(6-(1-methylethoxy)-2-pyrazinyl)-1H-indol-5-yl)-1,3,4-thiadiazol-2-amine] | – | 0.003 µM | 0.0166 µM | – | – | 2.22 µM | 0.0919 µM | 0.0082 µM
